# Source: paper PMC7940574 (Angewandte Chemie (International ed. in English), 2021)
# Test system: A549 cells
# Assay: Flow cytometry annexin V / propidium iodide in A549 cells
# Format: cell-based, human
# Details: 15 μM gefitinib
smiles,measurement,value
COc1cc2ncnc(Nc3ccc(F)c(Cl)c3)c2cc1OCCCN1CCOCC1 [gefitinib],mode of cytotoxicity (annexin V vs propidium iodide),early apoptosis
